Source: US10981932B2, “Macrocyclic indole derivatives” (Bayer Aktiengesellschaft, priority 2016, dated 2021)
Counter-ions that a name gives are not always drawn. Like-named read-outs stand apart in the source and are kept apart here.

What was measured:
SK-MEL-2 = experiment: Anti-proliferative effect (CellTiter-Glo, 72 h), SK-MEL-2; assay type: cell-based; details: Homo sapiens, SK-MEL-2 cells, median, read-out: IC50 antiproliferation assay SK-MEL-2 [M] (median)
Method: Assessment of the Anti-Proliferative Effect of Compounds in Different Cell Lines
(§1) The impact of compounds on the proliferation of different cell lines was assessed using the CellTiter-Glo® Luminescent Cell Viability reagent from Promega (G7573). Of note, SUDHL10 and SUDHL5 (DLBCL), NCI-H929 (Multiple Myeloma), A2780 (ovarian carcinoma) as well as MV-4-11(AML) cells are sensitive to MCL-1 inhibition.
(§2) In parallel, cells were plated in a reference (day 0) plate for time zero determination.
(§3) Rim wells were excluded. The cells were incubated for 72 h hours in a humidified incubator at 37° C. The day 0 plate was measured by adding 30 μl/well of CTG solution (CellTiter-Glo® Luminescent Cell Viability reagent, Promega G7573) to time zero wells in the reference plate followed by a 10 minutes incubation and luminescence reading at 0.1 ms, using the PHERAstar FS microplate reader (BMG Labtech).
(§4) After 72 h incubation, the treated plates were measured in the same way as the day 0 plate mentioned above.

BCL-2 = biological target: T1, BCL-2 (Homo sapiens, UniProt P10415); experiment: Protein-protein interaction assay BCL-2/Bad BH3 peptide (BCL-2 assay), TR-FRET; assay type: binding; details: His-BCL-2 / Bad BH3-derived peptide, median
T1 construct: BCL-2 (amino acids 1-211, C-terminal fused to a hexahistidine (6×His) tag); purchased BPS Bioscience (San Diego, Calif., USA); host or cells: E. coli
T1 sequence (P10415 1-211): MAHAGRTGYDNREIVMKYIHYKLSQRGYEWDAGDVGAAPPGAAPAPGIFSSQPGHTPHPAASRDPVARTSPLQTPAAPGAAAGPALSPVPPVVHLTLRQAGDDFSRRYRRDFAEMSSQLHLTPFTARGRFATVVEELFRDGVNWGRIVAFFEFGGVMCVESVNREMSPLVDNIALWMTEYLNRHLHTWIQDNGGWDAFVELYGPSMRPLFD
Method: Protein-Protein Interaction Assay: BCL-2/Bad BH3 Peptide (BCL-2 Assay)
The dose-dependent inhibition by the compounds described in this invention of the interaction between BCL-2 and the BH3 domain of Bad (both human) was determined using a steady state binding competition assay with time-resolved fluorescence energy transfer (TR-FRET) readout. For that purpose BCL-2 (amino acids 1-211, C-terminal fused to a hexahistidine (6×His) tag and a synthetic Bad BH3-derived peptide of sequence Biotin-PEG2-PEG2-NLWAAQRYGRELRR-Nle-SDEFVDSFKK-amide (SEQ ID NO: 2) served as protein receptor and tracer ligand respectively. The recombinant BCL-2 protein (expressed in E. coli) was purchased from BPS Bioscience (San Diego, Calif., USA). The Bad BH3-derived peptide can be obtained from e.g. Biosyntan (Berlin, Germany).
In the assay 11 different concentrations of each compound (0.1 nM, 0.33 nM, 1.1 nM, 3.8 nM. 13 nM, 44 nM, 0.15 μM, 0.51 μM, 1.7 μM, 5.9 μM and 20 μM) were typically measured as duplicates in the same microtiter plate. For that, 100-fold concentrated DMSO solutions were prepared by serial dilutions (1:3.4) of a 2 mM stock solution in a clear, 384-well microtiter plate (Greiner Bio-One, Frickenhausen, Germany). From there, 50 nl were transferred in a dark test plate (Greiner Bio-One. Frickenhausen, Germany). The assay was initiated by addition of 2 μl of a 2,5-fold concentrated His-BCL-2 solution (usually for a 1 nM end concentration in 5 μl reaction volume) in aqueous assay buffer [50 mM Tris/HCl pH 7, 100 mM sodium chloride (NaCl), 50 mM potassium fluoride (KF), 0.005% Tween-20, 2 mM DTT, 0.1% bovine gamma globulin (BGG)] to the compounds in the assay plate. This was followed by a 10-minute incubation step at 22° C. for pre-equilibration of the putative complex between His-BCL-2 and the compounds.
The mixture was incubated in the dark for one hour at 22° C. and then overnight at 4° C. The formation of BCL-2/Bad complexes was determined by measuring the resonance energy transfer of the anti-His-Eu-cryptate antibody to the streptavidin-XL665 present in the reaction. For that purpose, the fluorescence emission at 620 nm and 665 nm after excitation at 330-350 nm was measured in a TR-FRET measuring instrument, for instance a Rubystar or a Pherastar (both from BMG Lab Technologies. Offenburg, Germany) or a Viewlux (Perkin-Elmer). The ratio of the emission at 665 nm and at 622 nm was used as indicator of the amount of BCL-2/Bad complexes present.
The resulting data (ratio) were normalized, taking 0% inhibition as the mean value of control measurements (usually 32 data points) where all reagents were included. In this case 50 nl DMSO were used instead of compounds. A 100% inhibition corresponded to the mean value of control measurements (usually 32 data points) where all reagents except BCL-2 were included. IC50 values were determined by regression analysis based on a 4 parameter equation (minimum, maximum, IC50, Hill; Y=Max+(Min−Max)/(1+(X/IC50)^Hill) using the Screener Software (Genedata).

NCI-H1703 = experiment: Anti-proliferative effect (CellTiter-Glo, 72 h), NCI-H1703; assay type: cell-based; details: Homo sapiens, NCI-H1703 cells, median, read-out: IC50 antiproliferation assay NCI-H1703 [M] (median)
Method: as §1, §2, §3, §4

OPM2 = experiment: Anti-proliferative effect (CellTiter-Glo, 72 h), OPM2; assay type: cell-based; details: OPM2 cells, median, read-out: IC50 antiproliferation assay OPM2 [M] (median)
Procedure, shortened: (§5)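 After seeding, one plate is read right away by CellTiter-Glo luminescence to fix time zero. The treated plates stay at 37 °C in humidified air for 72 h and are then measured with the same reagent and 10 min incubation.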

MV-4-11 = experiment: Anti-proliferative effect (CellTiter-Glo, 72 h), MV-4-11; assay type: cell-based; details: MV-4-11 cells, median, read-out: IC50 antiproliferation assay MV-4-11 [M] (median)
Procedure, shortened: as §5

| SMILES | IC50 (SK-MEL-2) | IC50 (BCL-2) | IC50 (NCI-H1703) | IC50 (MV-4-11; Homo sapiens, MV4-11, 72 h) | IC50 (MV-4-11) | IC50 (OPM2; Homo sapiens, OPM-2, 72 h) | IC50 (OPM2) |
| --- | --- | --- | --- | --- | --- | --- | --- |
| CCc1c2c(nn1C)COCCCCn1c(C(=O)O)c(CCCOc3cccc4ccccc34)c3ccc(C)c-2c31 (single isomer, unassigned; enantiomer 1) [Example 154, 3-Ethyl-2,4-dimethyl-7-[3-(1-naphthyloxy)propyl]-2,10,11,12,13,15-hexahydropyrazolo[4′,3′:9,10][1,6]oxazacycloundecino[8,7,6-hi]indole-8-carboxylic acid-N-ethylethanamine Salt (Enantiomer 1)] | 1.84e-05 M | > 20 µM | 6.84e-06 M | 1.36e-06 M |  | 2e-06 M |  |
| CCc1c2c(nn1C)COCCCCn1c(C(=O)O)c(CCCOc3cccc4ccccc34)c3cccc-2c31 (single isomer, unassigned; enantiomer 1) [Example 148, 3-Ethyl-2-methyl-7-[3-(1-naphthyloxy)propyl]-2,10,11,12,13,15-hexahydropyrazolo[4′,3′:9,10][1,6]oxazacycloundecino[8,7,6-hi]indole-8-carboxylic acid-N-ethylethanamine Salt (Enantiomer 1)] | 2.67e-05 M | > 20 µM | 9.36e-06 M | 9.73e-07 M |  | 2.74e-06 M |  |
| CCc1c2c(nn1C)CN(C)CCCn1c(C(=O)O)c(CCCOc3cccc4ccccc34)c3ccc(C)c-2c31 (single isomer, unassigned; enantiomer 1) [Example 145, 11-Ethyl-7,10,12-trimethyl-1-[3-(1-naphthyloxy)propyl]-4,5,6,7,8,10-hexahydropyrazolo[3′,4′:7,8][1,5]diazecino[9,10,1-hi]indole-2-carboxylic acid-N-ethylethanamine Salt (Enantiomer 1)] | 1.17e-05 M | > 20 µM | 6.53e-06 M | 4.3e-06 M |  | 3.22e-06 M |  |

Now from value to molecule, other results behind:

| IC50 (SK-MEL-2) | IC50 (BCL-2) | IC50 (NCI-H1703) | IC50 (MV-4-11; Homo sapiens, MV4-11, 72 h) | IC50 (MV-4-11) | SMILES | IC50 (OPM2; Homo sapiens, OPM-2, 72 h) | IC50 (OPM2) |
| --- | --- | --- | --- | --- | --- | --- | --- |
| 1.12e-05 M | > 20 µM | 5.52e-06 M |  | 2.29e-06 M | Cn1nc(COc2ccc(N3CCN(S(C)(=O)=O)CC3)cc2)c2c1COCCCCn1c(C(=O)O)c(CCCOc3cccc4ccccc34)c3cccc-2c31 (single isomer, unassigned; enantiomer 2) [Example 1-10, 1-methyl-3-({4-[4-(methylsulfonyl)piperazin-1-yl]phenoxy}methyl)-7-[3-(naphthalen-1-yloxy)propyl]-1,10,11,12,13,15-hexahydropyrazolo[4′,3′:9,10][1,6]oxazacycloundecino[8,7,6-hi]indole-8-carboxylic acid (enantiomer 2)] |  | 2.81e-06 M |
| > 3.3e-05 M | > 20 µM | 1.1e-05 M | 3.52e-06 M |  | CN1CCCn2c(C(=O)O)c(CCCOc3cccc4ccccc34)c3cccc(c32)-c2c(COc3ccc(N4CCN(S(=O)(=O)N(C)C)CC4)cc3)nn(C)c2C1 (single isomer, unassigned; enantiomer 1) [Example 1-15, (+)-11-({4-[4-(dimethylsulfamoyl)piperazin-1-yl]phenoxy}methyl)-7,9-dimethyl-1-[3-(naphthalen-1-yloxy)propyl]-4,5,6,7,8,9-hexahydropyrazolo[3′,4′:7,8][1,5]diazecino[9,10,1-hi]indole-2-carboxylic Acid (Enantiomer 1)] |  | 1.91e-06 M |
| 4.96e-06 M | > 20 µM | 2.67e-06 M |  | 1.35e-06 M | Cn1nc(COc2ccc(N3CCN(S(=O)(=O)C4CC4)CC3)cc2)c2c1COCCCCn1c(C(=O)O)c(CCCOc3cccc4ccccc34)c3cccc-2c31 (single isomer, unassigned; enantiomer 2) [Example 1-13, 3-({4-[4-(cyclopropylsulfonyl)piperazin-1-yl]phenoxy}methyl)-1-methyl-7-[3-(naphthalen-1-yloxy)propyl]-1,10,11,12,13,15-hexahydropyrazolo[4′,3′:9,10][1,6]oxazacycloundecino[8,7,6-hi]indole-8-carboxylic Acid (Enantiomer 2)] |  | 6.34e-07 M |
